# Tested on: production of TNF-alpha in RAW 264.7 cells
# Experiment: Inhibition of TNF-alpha production in LPS-treated RAW 264.7 cells, ELISA of culture supernatant
# Format: cell-based, mouse
# Conditions: Mus musculus, RAW264.7, Table 23, LPS 0.3 μg/ml, 24 hours, compounds up to 10 μM, IC50 unit inferred
# Method: To test the inhibiting activity of the compounds prepared from above Examples on the production of TNF-alpha, the concentration of TNF-alpha in the cell supernatant was measured.
# Each 200 μl of RAW 264.7 cells (ATCC, USA), a mouse macrophage cell line was seeded onto each well of 96-well microtiter plate (Nunc, Sweden) to the concentration ranging from 1×10^6 cells/ml to 5×10^6 cells/ml, and incubated in DMEM (Dulbeco's modified eagles medium) media containing 5% FBS (fetal bovine serum) at 37° C. in 5% CO2 incubator.
# Various concentrations of the compounds of the present invention ranging from […] to 10 μM and LPS (Sigma, USA) in the final concentration of 0.3 μg/ml were treated to activated cell simultaneously. The treated cells were cultured at 37° C. for 24 hours in 5% CO2 incubator and the cultured cells were collected after the cultivation
# And then the concentration of TNF-alpha secreted from the culture supernatant of RAW 264.7 cells was determined by ELISA according to the manufacture's instruction (R&D Systems, Minneapolis, Minn.).
# The result was shown in Table 23 (AA: IC50's<1, A: IC50's<5, B: IC50's<10, C: IC50's>10).
row,IC50 [µM],Structure (SMILES)
1,> 10,"O=C(CC1CCN(CCc2ccccc2)C1=O)NO (stereo not drawn) [Example 27, N-hydroxy-2-(2-oxo-1-phenethyl-pyrrolidin-3-yl)-acetamide]"
2,< 5,"O=C(CCC1=CCN(CCc2ccccc2F)C1=O)NO [Example 28, 3-{1-[2-(2-fluoro-phenyl)-ethyl]-2-oxo-2,5-dihydro-1H-pyrrol-3-yl}-N-hydroxy-propionamide]"
3,< 5,"O=C(CCC1=CCN(CCc2cccc(F)c2)C1=O)NO [Example 29, 3-{1-[2-(3-fluoro-phenyl)-ethyl]-2-oxo-2,5-dihydro-1H-pyrrol-3-yl}-N-hydroxy-propionamide]"
4,< 5,"O=C(CCC1=CCN(CCc2ccc(F)cc2)C1=O)NO [Example 30, 3-{1-[2-(4-fluoro-phenyl)-ethyl]-2-oxo-2,5-dihydro-1H-pyrrol-3-yl}-N-hydroxy-propionamide]"
5,> 10,"O=C(CCC1=CCN(CCc2ccccc2[N+](=O)[O-])C1=O)NO [Example 31, N-hydroxy-3-{1-[2-(2-nitro-phenyl)-ethyl]-2-oxo-2,5-dihydro-1H-pyrrol-3-yl}-propionamide]"
6,> 10,"O=C(CCC1=CCN(CCc2cccc([N+](=O)[O-])c2)C1=O)NO [Example 32, N-hydroxy-3-{1-[2-(3-nitro-phenyl)-ethyl]-2-oxo-2,5-dihydro-1H-pyrrol-3-yl}-propionamide]"
7,< 10,"O=C(CCC1=CCN(CCc2ccc([N+](=O)[O-])cc2)C1=O)NO [Example 33, N-hydroxy-3-{1-[2-(4-nitro-phenyl)-ethyl]-2-oxo-2,5-dihydro-1H-pyrrol-3-yl}-propionamide]"
8,< 5,"O=C(CCC1=CCN(CCc2ccccc2Br)C1=O)NO [Example 34, 3-{1-[2-(2-bromo-phenyl)-ethyl]-2-oxo-2,5-dihydro-1H-pyrrol-3-yl}-N-hydroxy-propionamide]"
9,< 5,"O=C(CCC1=CCN(CCc2ccc(Br)cc2)C1=O)NO [Example 35, 3-{1-[2-(4-bromo-phenyl)-ethyl]-2-oxo-2,5-dihydro-1H-pyrrol-3-yl}-N-hydroxy-propionamide]"
10,< 1,"Cc1ccc(CCCN2CC=C(CCC(=O)NO)C2=O)cc1 [Example 40, N-hydroxy-3-[2-oxo-1-(3-p-tolyl-propyl)-2,5-dihydro-1H-pyrrol-3-yl]-propionamide]"
11,< 5,"CC(C)c1ccc(CCCN2CC=C(CCC(=O)NO)C2=O)cc1 [Example 43, N-hydroxy-3-{1-[3-(4-isopropyl-phenyl)-propyl]-2-oxo-2,5-dihydro-1H-pyrrol-3-yl]-propionamide]"
12,< 5,"O=C(CCC1=CCN(CCCc2ccc(Br)cc2)C1=O)NO [Example 44, 3-{1-[3-(4-bromo-phenyl)-propyl]-2-oxo-2,5-dihydro-1H-pyrrol-3-yl]-N-hydroxy-propionamide]"
13,< 5,"O=C(CCC1=CCN(CCCc2ccc(Cl)cc2)C1=O)NO [Example 45, 3-{1-[3-(4-chloro-phenyl)-propyl]-2-oxo-2,5-dihydro-1H-pyrrol-3-yl]-N-hydroxy-propionamide]"
14,< 10,"COc1ccc(CCCN2CC=C(CCC(=O)NO)C2=O)cc1 [Example 46, N-hydroxy-3-{1-[3-(4-methoxy-phenyl)-propyl]-2-oxo-2,5-dihydro-1H-pyrrol-3-yl]-propionamide]"
15,< 1,"O=C(CCC1=CCN(Cc2ccc3ccccc3c2)C1=O)NO [Example 49, N-hydroxy-3-(1-naphthalene-2-ylmethyl-2-oxo-2,5-dihydro-1H-pyrrol-3-yl)-propionamide]"
16,> 10,"CN1CC=C(CCC(=O)NO)C1=O [Example 50, N-hydroxy-3-(1-methyl-2-oxo-2,5-dihydro-1H-pyrrol-3-yl)-propionamide]"
17,> 10,"C=CCN1CC=C(CCC(=O)NO)C1=O [Example 51, 3-(1-allyl-2-oxo-2,5-dihydro-1H-pyrrol-3-yl)-N-hydroxy-propionamide]"

# Second part, the compound before the results:
row,Structure (SMILES),IC50 [µM]
1,"COc1ccc(CN2CC=C(CCC(=O)NO)C2=O)c(OC)c1 [Example 1, 3-[1-(2,4-Dimethoxybenzyl)-2-oxo-2,5-dihydro-1H-pyrrol-3-yl]-N-hydroxypropionamide]",< 10
2,"O=C(CCC1=CCN(Cc2ccccc2)C1=O)NO [Example 2, 3-(1-benzyl-2-oxo-2,5-dihydro-1H-pyrrol-3-yl)-N-hydroxy-propionamide]",< 5
3,"O=C(CCC1=CCN(CCc2ccccc2)C1=O)NO [Example 3, N-hydroxy-3-(2-oxo-1-phenethyl-2,5-dihydro-1H-pyrrol-3-yl)-propionamide]",< 5
4,"O=C(CCC1=CCN(CCCc2ccccc2)C1=O)NO [Example 4, N-hydroxy-3-[2-oxo-1-(3-phenyl-propyl)-2,5-dihydro-1H-pyrrol-3-yl]-propionamide]",< 1
5,"O=C(CCC1=CCN(CCCCc2ccccc2)C1=O)NO [Example 5, N-hydroxy-3-[2-oxo-1-(4-phenyl-butyl)-2,5-dihydro-1H-pyrrol-3-yl]-propionamide]",< 5
6,"Cc1ccccc1CN1CC=C(CCC(=O)NO)C1=O [Example 6, N-hydroxy-3-[1-(2-methyl-benzyl)-2-oxo-2,5-dihydro-1H-pyrrol-3-yl]-propionamide]",< 5
7,"Cc1cccc(CN2CC=C(CCC(=O)NO)C2=O)c1 [Example 7, N-hydroxy-3-[1-(3-methyl-benzyl)-2-oxo-2,5-dihydro-1H-pyrrol-3-yl]-propionamide]",< 5
8,"Cc1ccc(CN2CC=C(CCC(=O)NO)C2=O)cc1 [Example 8, N-hydroxy-3-[1-(4-methyl-benzyl)-2-oxo-2,5-dihydro-1H-pyrrol-3-yl]-propionamide]",< 5
9,"COc1ccccc1CN1CC=C(CCC(=O)NO)C1=O [Example 9, N-hydroxy-3-[1-(2-methoxy-benzyl)-2-oxo-2,5-dihydro-1H-pyrrol-3-yl]-propionamide]",< 10
10,"COc1cccc(CN2CC=C(CCC(=O)NO)C2=O)c1 [Example 10, N-hydroxy-3-[1-(3-methoxy-benzyl)-2-oxo-2,5-dihydro-1H-pyrrol-3-yl]-propionamide]",< 5
11,"COc1ccc(CN2CC=C(CCC(=O)NO)C2=O)cc1 [Example 11, N-hydroxy-3-[1-(4-methoxy-benzyl)-2-oxo-2,5-dihydro-1H-pyrrol-3-yl]-propionamide]",< 1
12,"O=C(CCC1=CCN(Cc2ccc(Br)cc2)C1=O)NO [Example 12, 3-[1-(4-bromo-benzyl)-2-oxo-2,5-dihydro-1H-pyrrol-3-yl]-N-hydroxy-propionamide]",< 1
13,"O=C(CCC1=CCN(Cc2ccc(Cl)cc2)C1=O)NO [Example 13, 3-[1-(4-chloro-benzyl)-2-oxo-2,5-dihydro-1H-pyrrol-3-yl]-N-hydroxy-propionamide]",< 5
14,"O=C(CCC1=CCN(Cc2ccc(OCc3ccccc3)cc2)C1=O)NO [Example 14, 3-[1-(4-benzyloxy-benzyl)-2-oxo-2,5-dihydro-1H-pyrrol-3-yl]-N-hydroxy-propionamide]",> 10
15,"O=C(CCC1=CCN(Cc2ccc([N+](=O)[O-])cc2)C1=O)NO [Example 15, N-hydroxy-3-[1-(4-nitro-benzyl)-2-oxo-2,5-dihydro-1H-pyrrol-3-yl]-propionamide]",< 10
16,"COc1ccc(CN2CC=C(CCC(=O)O)C2=O)c(OC)c1 [Example 16, 3-[1-(2,4-dimethoxy-benzyl)-2-oxo-2,5-dihydro-1H-pyrrol-3-yl]-propionic acid]",> 10
17,"O=C(O)CCC1=CCN(Cc2ccccc2)C1=O [Example 17, 3-(1-benzyl-2-oxo-2,5-dihydro-1H-pyrrol-3-yl)-propionic acid]",> 10
18,"O=C(CCC1=CCN(Cc2ccc(NC(=O)c3ccccc3)cc2)C1=O)NO [Example 18, N-{4-[3-(2-hydroxycarbamoyl-ethyl)-2-oxo-2,5-dihydro-pyrrole-1-yl-methyl]-phenyl}-benzamide]",> 10
19,"Cc1ccc(S(=O)(=O)Nc2ccc(CN3CC=C(CCC(=O)NO)C3=O)cc2)cc1 [Example 19, N-hydroxy-3-{2-oxo-1-[4-(toluene-4-sulfonylamino)-benzyl]-2,5-dihydro-1H-pyrrol-3-yl}-propionamide]",< 10
20,"O=C(CC1=CCN(Cc2ccccc2)C1=O)NO [Example 20, 2-(1-benzyl-2-oxo-2,5-dihydro-1H-pyrrol-3-yl)-N-hydroxy-acetamide]",> 10
21,"COc1ccc(CN2CC=C(CC(=O)NO)C2=O)c(OC)c1 [Example 21, 2-[1-(2,4-dimethoxy-benzyl)-2-oxo-2,5-dihydro-1H-pyrrol-3-yl]-N-hydroxy-acetamide]",> 10
22,"O=C(CC1=CCN(CCc2ccccc2)C1=O)NO [Example 22, N-hydroxy-2-(2-oxo-1-phenethyl-2,5-dihydro-1H-pyrrol-3-yl)-acetamide]",> 10
23,"O=C(CC1=CCN(CCCCc2ccccc2)C1=O)NO [Example 23, N-hydroxy-2-[2-oxo-1-(4-phenyl-butyl)-2,5-dihydro-1H-pyrrol-3-yl]-acetamide]",> 10
24,"O=C(CC1CCN(Cc2ccccc2)C1=O)NO (stereo not drawn) [Example 25, 2-(1-benzyl-2-oxo-pyrrolidin-3-yl)-N-hydroxy-acetamide]",> 10
25,"COc1ccc(CN2CCC(CC(=O)NO)C2=O)c(OC)c1 (stereo not drawn) [Example 26, 2-[1-(2,4-dimethoxy-benzyl)-2-oxo-pyrrolidin-3-yl]-N-hydroxy-acetamide]",> 10

# From patent US7846963B2, “2-oxo-heterocyclic compounds and the pharmaceutical compositions comprising the same” (Korea Research Institute of Bioscience and Biotechnology, priority 2003, dated 2010)
